The numbers were not newly measured in patent US10905730B2, “Phytocannabinoid topical compositions for releiving pain” (priority 2017, dated 2021), which cites them from elsewhere.

Where two headings read alike, the source gives them in different places.

Regarding `C=C(C)[C@@H]1CCC(C)=C[C@H]1c1c(O)cc(CCCCC)cc1O` [CBD, cannabidiol], the “solubility in organic solvents” value is given as “soluble in organic solvents such as pentane” and the solubility in water entry is reported as “insoluble in water”. Further, the chemical stability entry (acidic conditions) is listed as “cyclizes to THC”. For the same compound, for the setting “strongly basic media and presence of air”, the chemical stability entry was “oxidized to a quinone”.
